From ChEMBL document CHEMBL1201862, “PubChem BioAssay data set” (2004) come the findings set out here.

What all share (experiment): NCI-60 cell line screen, 48 h
Assay [1] deals with UACC-257.
The test system of assay [2] is CAKI-1.
Assay [3] deals with HCT-116.
Assay [4] concerns K562.
The subject of assay [5] is ACHN.
Assay [6] deals with SW-620.
In assay [7] the test system is SK-OV-3.
In assay [8] the test system is HCT-15.
For assay [9], the system named is HCC 2998.
Assay [10] has as its system M14.
Assay [11] deals with SF-539.
Assay [12] relates to CCRF-CEM.
In assay [13] the test system is NCI-H226.
The subject of assay [14] is LOX IMVI.
Assay [15] deals with HOP-92.
For assay [16], the system named is SR.

Structures are written as SMILES.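 All cell lines were grown in 96-well plates and treated with compound for 48 hours. GI50: concentration for 50% inhibition of growth.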 Active and inactive are the calls of the source. No stated cut-off is given here; in the data, active = GI50 up to about 1.1 µM and inactive = higher.

`Cc1[nH]c2ccccc2c1-c1n[nH]c(=O)c2ccccc12`: the GI50 in assay [1] was 25.1 µM (inactive); in assay [2], 13.4 µM (inactive); in assay [3], 13.3 µM (inactive); in assay [4], 5.25 µM (inactive); in [5], 25.7 µM (inactive); in assay [6] it was 16.1 µM (inactive). In addition, the GI50 in assay [7] was 25.1 µM (inactive); in assay [8] it was 5.33 µM; in assay [9], 30.4 µM (inactive); in assay [10], 21 µM (inactive); in [11], 24.3 µM (inactive); in assay [12], 22.9 µM (inactive). In addition, the GI50 in assay [13] is 18.7 µM (inactive).
In the case of `CC(=O)OC1COC(n2c(=S)n(-c3ccc(C)cc3)c(=O)c3ccccc32)C(OC(C)=O)C1OC(C)=O` (configuration not stated), the GI50 in [1], in assay [2], in assay [3], in assay [14], in [5] and in assay [6] was > 100 µM (inactive) throughout. For the same compound, the GI50 in assay [7] was > 100 µM (inactive); in assay [8] it was greater than 100 µM; in assay [9] it was > 100 µM (inactive); in [10], > 100 µM (inactive); in [15] it was 45.8 µM (inactive); in [11], > 100 µM (inactive). Also, the GI50 in assay [13] is > 100 µM (inactive).
For `NC1CCCCC1.O=C(O)C1(P(=O)(O)O)CC1`, the GI50 in assay [1], in [2], in [3], in assay [4], in assay [5] and in assay [6] was > 100 µM (inactive) in each case. The GI50 in [7] was > 100 µM (inactive); in assay [8] it was greater than 100 µM; in assay [9] it was > 100 µM (inactive); in assay [10], 25.5 µM (inactive); in [11], > 100 µM (inactive); in [12], > 100 µM (inactive).
On to `CC(C)OC(=O)c1cccnc1/C=N/O`, for which the GI50 in [1], in [2], in [3], in assay [14], in assay [4] and in assay [5] was > 100 µM (inactive) throughout. Moreover, the GI50 in assay [6] is > 100 µM (inactive); in assay [7], > 100 µM (inactive); in [8] it was greater than 100 µM; in assay [9] it was > 100 µM (inactive); in assay [10], > 100 µM (inactive); in assay [11], > 100 µM (inactive). In addition, the GI50 in assay [12] and in assay [13] was > 100 µM (inactive) in each case.
For the compound `CC(C)(C)NCC(COc1ccc([N+](=O)[O-])cc1)OP(c1ccccc1)c1ccccc1` (configuration not stated), the GI50 was 44 µM (inactive) in assay [1]; 28.8 µM (inactive) in assay [2]; 33 µM (inactive) in [3]; 11 µM (inactive) in assay [14]; 32.7 µM (inactive) in assay [4]; 38.7 µM (inactive) in assay [5]. For the same compound, the GI50 in assay [6] was 47.4 µM (inactive); in assay [7], 60.5 µM (inactive); in assay [8], 37.8 µM; in assay [9], 42.4 µM (inactive); in [10], 26.8 µM (inactive); in [11], 53.1 µM (inactive). Besides, the GI50 in assay [12] was 27.8 µM (inactive); in assay [13], 29 µM (inactive).
In the case of `NC1CCC2(O)c3ccccc3C2C1` (configuration not stated), the GI50 in assay [1], in assay [3], in assay [14], in assay [4], in assay [5] and in assay [6] was > 100 µM (inactive) throughout. Moreover, the GI50 in [16] was > 100 µM (inactive); in [7], > 100 µM (inactive); in assay [8], greater than 100 µM; in assay [10] it was > 100 µM (inactive); in assay [12], > 100 µM (inactive); in assay [13], > 100 µM (inactive).
With `CNC(C)(C)Cc1ccc(Cl)cc1`, the GI50 in [1], in assay [2], in assay [3], in assay [14], in assay [4] and in assay [5] was > 100 µM (inactive) each time. The GI50 in assay [6], in [7], in [9], in assay [10], in assay [11] and in assay [12] was > 100 µM (inactive) throughout.
Turning to `Clc1ccc2c(c1)-c1c3c(nn1-c1ccccc1)-c1ccccc1SC3O2` (configuration not stated), the GI50 in [1] is > 100 µM (inactive); in [3], > 100 µM (inactive); in assay [14] it was 71.3 µM (inactive); in assay [4], 75.3 µM (inactive); in [5], > 100 µM (inactive); in assay [6], > 100 µM (inactive). Moreover, the GI50 in assay [7] was > 100 µM (inactive); in assay [9], > 100 µM (inactive); in [15], 35.7 µM (inactive); in assay [11] it was > 100 µM (inactive); in assay [12], 44.9 µM (inactive).
As to `N#C/C(=C1\SC(C(N)=O)=C(N)N1c1ccccc1)c1nc2ccccc2[nH]1`, the GI50 in [1] is > 100 µM (inactive); in assay [2] it was > 100 µM (inactive); in [3] it was > 100 µM (inactive); in [14], 32.2 µM (inactive); in assay [4], > 100 µM (inactive); in assay [5] it was > 100 µM (inactive). In addition, the GI50 in [6] was > 100 µM (inactive); in assay [7], > 100 µM (inactive); in [8], greater than 100 µM; in assay [10] it was > 100 µM (inactive); in assay [15], 39.5 µM (inactive); in [11] it was 75.9 µM (inactive). In addition, the GI50 in assay [12] and in assay [13] was > 100 µM (inactive) throughout.
Turning to `CC(C)C(C(=O)O)N(CC1(O)OCC(O)C(O)C1O)N=O` (configuration not stated), the GI50 in assay [1], in [3], in assay [14], in assay [4], in assay [5] and in assay [6] was > 100 µM (inactive) in each case. In addition, the GI50 in assay [7], in assay [9], in assay [10], in assay [15], in [11] and in [12] was > 100 µM (inactive) each time.
For the compound `CSc1nc2c(nc(N)n2C2OC(COC(C)=O)C(OC(C)=O)C(OC(C)=O)C2OC(C)=O)c(=O)n1C` (configuration not stated), the GI50 in assay [1], in assay [2], in assay [3], in [14], in assay [4] and in assay [5] was > 100 µM (inactive) in each case. Besides, the GI50 in assay [6] is > 100 µM (inactive); in [7] it was > 100 µM (inactive); in [8] it was greater than 100 µM; in assay [9], > 100 µM (inactive); in assay [10], > 100 µM (inactive); in assay [15], > 100 µM (inactive). Moreover, the GI50 in assay [11], in assay [12] and in assay [13] was > 100 µM (inactive) in each case.
